# Results published in patent US10774064B2 (Cadent Therapeutics, Inc., priority 2016, dated 2020).
# Target: T1, small-conductance Ca2+-activated K+ channels (SK channels, subtype 2) (Homo sapiens, UniProt Q9H2S1)
# T1 construct: expressed in transfected cells; host or cells: HEK293
# Assay: whole-cell patch-clamp of ionic current through SK2 channels in HEK293 cells (SC100)
# Assay type: cell-based
# Details: concentration that increases the basal current by 100%; HEK293 cells expressing SK2 channels
# In short: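 Whole-cell patch-clamp recording of current in HEK293 cells expressing SK2 channels. SC100 is the compound concentration that increases basal current by 100%.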
row,Structure (SMILES),SC100
1,Cc1cc(C)n(-c2cc(C(F)F)nc(NC3CCC(F)(F)CC3)n2)n1 [Compound 173],++ (++ means 200 nM-1000 nM)
2,"Cc1cc(C)n(-c2cc(N(C)C3COC3)cc(NC3CCC(F)(F)CC3)n2)n1 [Compound 238, N2-(4,4-difluorocyclohexyl)-6-(3,5-dimethyl-1H-pyrazol-1-yl)-N4-methyl-N4-(oxetan-3-yl)pyridine-2,4-diamine]",++ (++ means 200 nM-1000 nM)
3,"CC(O)c1csc(-c2nc(NC3CCC(F)(F)CC3)cc(N3CCOCC3)n2)n1 (stereo not drawn) [Compound 340, 1-(2-(4-((4,4-difluorocyclohexyl)amino)-6-morpholinopyrimidin-2-yl)thiazol-4-yl)ethan-1-ol]",+ (+ means >1 uM)

# Next, values leading:
row,SC100,Structure (SMILES)
1,++ (++ means 200 nM-1000 nM),"CC(C)(C)C(=O)N1CC(Oc2cc(NC3CCC(F)(F)CC3)nc(-n3ccc(C(F)F)n3)n2)C1 [Compound 298, 1-(3-((6-((4,4-difluorocyclohexyl)amino)-2-(3-(difluoromethyl)-1H-pyrazol-1-yl)pyrimidin-4-yl)oxy)azetidin-1-yl)-2,2-dimethylpropan-1-one]"
2,++ (++ means 200 nM-1000 nM),"Cc1csc(-c2nc(NC3CCC(F)(F)CC3)cc([C@@H](C)O)n2)n1 (single isomer, unassigned) [Compound 364]"
3,+ (+ means >1 uM),"O=C(NCc1cc(NC2CCC(F)(F)CC2)nc(-n2ccc(CF)n2)n1)C1COC1 [Compound 333, N-((6-((4,4-difluorocyclohexyl)amino)-2-(3-(fluoromethyl)-1H-pyrazol-1-yl)pyrimidin-4-yl)methyl)oxetane-3-carboxamide]"
4,++ (++ means 200 nM-1000 nM),"Cc1cc(-n2ccc(C)n2)nc(NC2CCC(F)(F)CC2)n1 [Compound 120, N-(4,4-difluorocyclohexyl)-4-methyl-6-(3-methyl-1H-pyrazol-1-yl)pyrimidin-2-amine]"
5,++ (++ means 200 nM-1000 nM),"COC(=O)N1CC(OCc2cc(NC3CCC(F)(F)CC3)nc(-n3ccc(CF)n3)n2)C1 [Compound 335, methyl 3-((6-((4,4-difluorocyclohexyl)amino)-2-(3-(fluoromethyl)-1H-pyrazol-1-yl)pyrimidin-4-yl)methoxy)azetidine-1-carboxylate]"
6,++ (++ means 200 nM-1000 nM),"Cc1cc(C)n(-c2cc(C#N)cc(NC3CCC(F)(F)CC3)n2)n1 [Compound 174, 2-((4,4-difluorocyclohexyl)amino)-6-(3,5-dimethyl-1H-pyrazol-1-yl)isonicotinonitrile]"
7,+ (+ means >1 uM),"Cc1cc(NC2CCC(F)(F)CC2)nc(-c2nc(C(F)(F)F)cs2)n1 [Compound 269, N-(4,4-difluorocyclohexyl)-6-methyl-2-(4-(trifluoromethyl)thiazol-2-yl)pyrimidin-4-amine]"
8,++ (++ means 200 nM-1000 nM),"Cc1cc(NC2CCC(F)(F)CC2)nc(-n2nc(C)c(F)c2C)n1 [Compound 201, N-(4,4-difluorocyclohexyl)-2-(4-fluoro-3,5-dimethyl-1H-pyrazol-1-yl)-6-methylpyrimidin-4-amine]"
9,+ (+ means >1 uM),"Cc1cccc(-c2nc(C)cc(NC3CCC(F)(F)CC3)n2)n1 [Compound 224, N-(4,4-difluorocyclohexyl)-6-methyl-2-(6-methylpyridin-2-yl)pyrimidin-4-amine]"
10,++ (++ means 200 nM-1000 nM),"Cc1cc(NC2CCC(F)(F)CC2)nc(-n2cc(C)c(C#N)n2)n1 [Compound 253, 1-(4-((4,4-difluorocyclohexyl)amino)-6-methylpyrimidin-2-yl)-4-methyl-1H-pyrazole-3-carbonitrile]"

# Same assay, conditions: whole-cell patch-clamp, HEK293 cells expressing SK2 channels; concentration that increases the basal current by 100%
row,Structure (SMILES),SC100 (μM)
1,"CC(=O)NCc1cc(NC2CCC(F)(F)CC2)nc(-c2nc(CF)cs2)c1 [NSSy5644, N-((2-((4,4-difluorocyclohexyl)amino)-6-(4-(fluoromethyl)thiazol-2-yl)pyridin-4-yl)methyl) acetamide]",++ (++ means 200 nM-1000 nM)
2,Cc1nsc(-c2nc(NC3CCC(F)(F)CC3)cc(N3CCN(C4COC4)CC3)n2)n1 [NSSy6201],+ (+ means >1 uM)
3,Cc1csc(-c2nc(NC3CCC(F)(F)CC3)cc(OC3CCOC3)n2)n1 (stereo not drawn) [IN11079-014-P1],+ (+ means >1 uM)
4,"Cc1cc(C)n(-c2cc(C)c(CNC3CCC(F)(F)CC3)nn2)n1 [IN11054-078-P1, N-((6-(3,5-dimethyl-1H-pyrazol-1-yl)-4-methylpyridazin-3-yl)methyl)-4,4-difluorocyclohexan-1-amine]",+ (+ means >1 uM)
5,COC(=O)N1CC(Oc2cc(NC3CCCCC3)nc(-c3nc(C)cs3)n2)C1 [NSSy6099],+++ (+++ means <200 nM)
6,Cc1ccn(-c2cc(N3CC4(CCC4)C3)nc(NC3CCC(F)(F)CC3)n2)n1 [NSSy6580],+ (+ means >1 uM)
7,CN(C)C1CN(c2cc(Nc3ccc(F)cc3)nc(-n3ccc(CF)n3)c2)C1 [NSSy5713],+ (+ means >1 uM)
8,Cc1ccn(-c2cc(CO)cc(Nc3ccc(F)cc3F)n2)n1 [NSSy6773],++ (++ means 200 nM-1000 nM)
9,Cc1csc(-c2nc(NC3CCC(F)CC3)cc(OC3CN(C(=O)C(C)C)C3)n2)n1 (stereo not drawn) [NSSy5709],++ (++ means 200 nM-1000 nM)
10,"Cc1ccn(-c2cc(C(O)c3cccnc3)cc(NC3CCC(F)(F)CC3)n2)n1 (stereo not drawn) [NSSy5676, (2-((4,4-difluorocyclohexyl)amino)-6-(3-methyl-1H-pyrazol-1-yl)pyridin-4-yl)(pyridin-3-yl)methanol]",+++ (+++ means <200 nM)
11,"CCOC(=O)c1cnc(-c2nc(C)cs2)nc1NC1CCC(F)(F)CC1 [IN11238-035-P1, ethyl 4-((4,4-difluorocyclohexyl)amino)-2-(4-methylthiazol-2-yl)pyrimidine-5-carboxylate]",+ (+ means >1 uM)
12,Cc1csc(-c2cc(OCc3ncnn3C)cc(NC3CCC(F)(F)CC3)n2)n1 [NSSy5695],++ (++ means 200 nM-1000 nM)
13,"COCc1cc(NC2CCC(F)(F)CC2)nc(-c2nc(C3CC3)cs2)n1 [IN11147-077-P1, 2-(4-cyclopropylthiazol-2-yl)-N-(4,4-difluorocyclohexyl)-6-(methoxymethyl)pyrimidin-4-amine]",++ (++ means 200 nM-1000 nM)
14,Cc1csc(-c2nc(C#N)cc(NC3CCC(F)(F)CC3)n2)n1 [IN10880-029-P1],+ (+ means >1 uM)
15,"Cc1csc(-c2nc(C)c(F)c(NC3CCC(F)(F)CC3)n2)n1 [IN11106-077-P1, N-(4,4-difluorocyclohexyl)-5-fluoro-6-methyl-2-(4-methylthiazol-2-yl)pyrimidin-4-amine]",++ (++ means 200 nM-1000 nM)
16,COC(=O)N1CC(Oc2cc(NC3CC=CCC3)nc(-n3ccc(C)n3)n2)C1 (stereo not drawn) [NSSy5786],++ (++ means 200 nM-1000 nM)
17,Cc1ccn(-c2nc(N3CCCCCC3)cc(N3CCOC(CO)C3)n2)n1 (stereo not drawn) [IN10882-068-P1],+ (+ means >1 uM)
18,"Cc1csc(-c2nc(NC3CCC(F)(F)CC3)cc(=O)n2CC#N)n1 [IN11196-007-P2, 2-(4-((4,4-difluorocyclohexyl)amino)-2-(4-methylthiazol-2-yl)-6-oxopyrimidin-1(6H)-yl)acetonitrile]",+ (+ means >1 uM)
19,Cc1csc(-c2cc(N3CC4(COC4)C3)cc(NC3CCC(F)(F)CC3)n2)n1 [NSSy5675],+++ (+++ means <200 nM)

# Now from value to compound:
row,SC100 (μM),Structure (SMILES)
1,++ (++ means 200 nM-1000 nM),"CC(=O)N1CCC(c2cc(NC3CCC(F)(F)CC3)nc(-n3ccc(C4CC4)n3)n2)CC1 [IN11166-042-P1, 1-(4-(2-(3-cyclopropyl-1H-pyrazol-1-yl)-6-((4,4-difluorocyclohexyl)amino)pyrimidin-4-yl)piperidin-1-yl)ethan-1-one]"
2,+++ (+++ means <200 nM),Cc1ccn(-c2cc(COc3ccc(C#N)cn3)cc(NC3CCC(F)(F)CC3)n2)n1 [NSSy6371]
3,+ (+ means >1 uM),"Cc1cc(NC2CCC(F)(F)CC2)nc(-c2cccc(C)n2)c1 [IN11137-041-P1, N-(4,4-difluorocyclohexyl)-4,6′-dimethyl-[2,2′-bipyridin]-6-amine]"
4,+ (+ means >1 uM),"CSc1cc(NC2CCC(F)(F)CC2)nc(-n2nc(C)cc2C)n1 [IN11067-060-P1, N-(4,4-difluorocyclohexyl)-2-(3,5-dimethyl-1H-pyrazol-1-yl)-6-(methylthio)pyrimidin-4-amine]"
5,+ (+ means >1 uM),"CCOc1ccn(-c2nc(C)cc(NC3CCC(F)(F)CC3)n2)n1 [IN11079-040-P1, N-(4,4-difluorocyclohexyl)-2-(3-ethoxy-1H-pyrazol-1-yl)-6-methylpyrimidin-4-amine]"
6,+++ (+++ means <200 nM),Cc1ccn(-c2cc(COC(=O)N(C)C)cc(NC3CCC(F)(F)CC3)n2)n1 [IN11039-006-P1]
7,+ (+ means >1 uM),"Cc1csc(-c2nc(NC3CCC(F)(F)CC3)cc(OC3CC3)n2)n1 [IN11146-033-P1, 6-cyclopropoxy-N-(4,4-difluorocyclohexyl)-2-(4-methylthiazol-2-yl)pyrimidin-4-amine]"
8,+ (+ means >1 uM),COc1cc(NC2CCC(F)(F)CC2)nc(-n2ccc(C)n2)n1 [IN11053-005-P1]
9,+ (+ means >1 uM),"COCc1cc(NC2CCC(F)(F)CC2)nc(-n2ccc(C)n2)n1 [IN11053-007-P1, N-(4,4-difluorocyclohexyl)-6-(methoxymethyl)-2-(3-methyl-1H-pyrazol-1-yl)pyrimidin-4-amine]"
10,++ (++ means 200 nM-1000 nM),"Cc1ccn(-c2cc(CN(C)C)nc(NC3CCC(F)(F)CC3)n2)n1 [NSSy6783, N-(4,4-difluorocyclohexyl)-4-((dimethylamino)methyl)-6-(3-methyl-1H-pyrazol-1-yl)pyrimidin-2-amine]"
11,+ (+ means >1 uM),"COc1cc(NC2CCC(C)(C)CC2)nc(-n2ccc(C)n2)n1 [IN11055-078-P1, N-(4,4-dimethylcyclohexyl)-6-methoxy-2-(3-methyl-1H-pyrazol-1-yl)pyrimidin-4-amine]"
12,++ (++ means 200 nM-1000 nM),Cc1ccn(-c2cc(N3CC(N(C)C)C3)cc(NC3CCC(F)(F)CC3)n2)n1 [NSSy5763]
13,+ (+ means >1 uM),Cc1ccn(-c2cc(CN3CCCOC3=O)cc(NC3CCC(F)(F)CC3)n2)n1 [IN11083-014-P1]
